From article PMC2765504 (Journal of natural products, 2009)

Target: T1, EncN (Streptomyces maritimus, UniProt Q9KHK1)
T1 sequence (Q9KHK1 1-522): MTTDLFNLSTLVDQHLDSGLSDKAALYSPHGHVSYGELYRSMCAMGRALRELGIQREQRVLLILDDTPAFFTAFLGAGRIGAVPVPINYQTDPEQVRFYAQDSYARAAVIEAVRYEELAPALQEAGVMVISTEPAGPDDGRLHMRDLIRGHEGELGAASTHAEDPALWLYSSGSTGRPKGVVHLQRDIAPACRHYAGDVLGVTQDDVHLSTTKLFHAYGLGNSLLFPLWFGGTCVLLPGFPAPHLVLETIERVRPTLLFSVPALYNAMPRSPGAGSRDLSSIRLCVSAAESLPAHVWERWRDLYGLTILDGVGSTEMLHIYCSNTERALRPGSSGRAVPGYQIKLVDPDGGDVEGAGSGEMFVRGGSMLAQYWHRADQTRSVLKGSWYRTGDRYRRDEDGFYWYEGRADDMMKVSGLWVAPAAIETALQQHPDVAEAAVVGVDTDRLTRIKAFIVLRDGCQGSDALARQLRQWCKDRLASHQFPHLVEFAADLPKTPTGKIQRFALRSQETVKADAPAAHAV
T1 sequence (Q9KHK4 1-82 partner): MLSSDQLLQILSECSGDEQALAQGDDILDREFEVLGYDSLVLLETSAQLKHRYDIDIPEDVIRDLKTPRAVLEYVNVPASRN
Experiment: FTMS of acyl loading on holo-EncC
Type: biochemical
Details: ATP 10 mM, EncN 2 uM, holo-EncC 20 uM

| Structure (SMILES) | FTMS of acyl loading on holo-EncC (benzoic acid 10 mM) | FTMS of acyl loading on holo-EncC (benzoic acid omitted) |
| --- | --- | --- |
| O=C(O)c1ccccc1 [benzoic acid] | Upon incubation with EncN, benzoate was transferred in typical nonribosomal peptide synthetase fashion | – |
| O=C(O)c1ccccc1O [salicylic acid] | – | in its absence, EncN preferentially activates and loads salicylate |
